Experimental data published in paper PMC4076014 (ACS chemical biology, 2014).
Read-outs that look alike come from different tables or passages of the source.

Assays:
SHIP1 = target: T1, SHIP1 (Mus musculus, UniProt Q9ES52); assay: Fluorescence polarization; format: biochemical
T1 sequence (Q9ES52 1-1191): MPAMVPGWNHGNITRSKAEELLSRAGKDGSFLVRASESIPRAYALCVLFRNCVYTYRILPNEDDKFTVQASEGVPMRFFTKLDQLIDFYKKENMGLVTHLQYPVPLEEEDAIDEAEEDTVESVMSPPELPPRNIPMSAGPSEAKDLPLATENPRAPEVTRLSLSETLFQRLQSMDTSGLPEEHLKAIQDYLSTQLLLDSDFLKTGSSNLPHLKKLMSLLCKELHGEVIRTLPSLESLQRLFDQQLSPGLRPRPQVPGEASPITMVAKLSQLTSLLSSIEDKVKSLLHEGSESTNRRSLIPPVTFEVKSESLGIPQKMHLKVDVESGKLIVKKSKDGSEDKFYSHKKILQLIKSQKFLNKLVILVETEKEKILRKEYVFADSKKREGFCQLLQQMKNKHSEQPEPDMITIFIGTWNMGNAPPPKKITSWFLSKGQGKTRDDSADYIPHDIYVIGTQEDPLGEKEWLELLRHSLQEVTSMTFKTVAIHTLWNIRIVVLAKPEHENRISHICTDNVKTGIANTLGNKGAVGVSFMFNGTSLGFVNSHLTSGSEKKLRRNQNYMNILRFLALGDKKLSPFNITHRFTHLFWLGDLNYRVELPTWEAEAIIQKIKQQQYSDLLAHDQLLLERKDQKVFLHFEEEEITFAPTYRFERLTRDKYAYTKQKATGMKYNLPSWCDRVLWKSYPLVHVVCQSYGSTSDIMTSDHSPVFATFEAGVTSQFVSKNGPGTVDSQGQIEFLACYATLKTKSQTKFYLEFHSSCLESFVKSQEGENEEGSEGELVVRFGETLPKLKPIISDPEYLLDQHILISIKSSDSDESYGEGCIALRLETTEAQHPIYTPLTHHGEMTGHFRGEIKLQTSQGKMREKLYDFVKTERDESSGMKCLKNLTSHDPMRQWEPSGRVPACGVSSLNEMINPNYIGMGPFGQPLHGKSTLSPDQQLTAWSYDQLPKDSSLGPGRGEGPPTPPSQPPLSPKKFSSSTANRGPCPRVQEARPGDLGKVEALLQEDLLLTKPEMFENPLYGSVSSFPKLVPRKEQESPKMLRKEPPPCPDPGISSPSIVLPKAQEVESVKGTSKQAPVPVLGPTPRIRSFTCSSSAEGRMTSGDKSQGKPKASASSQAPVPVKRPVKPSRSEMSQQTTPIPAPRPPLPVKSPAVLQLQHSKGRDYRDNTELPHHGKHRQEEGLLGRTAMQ

INPP5A = target: T2, INPP5A (Homo sapiens, UniProt Q14642); assay: Malachite green assay with IP3 substrate, dose response; format: biochemical
T2 sequence (Q14642 1-402): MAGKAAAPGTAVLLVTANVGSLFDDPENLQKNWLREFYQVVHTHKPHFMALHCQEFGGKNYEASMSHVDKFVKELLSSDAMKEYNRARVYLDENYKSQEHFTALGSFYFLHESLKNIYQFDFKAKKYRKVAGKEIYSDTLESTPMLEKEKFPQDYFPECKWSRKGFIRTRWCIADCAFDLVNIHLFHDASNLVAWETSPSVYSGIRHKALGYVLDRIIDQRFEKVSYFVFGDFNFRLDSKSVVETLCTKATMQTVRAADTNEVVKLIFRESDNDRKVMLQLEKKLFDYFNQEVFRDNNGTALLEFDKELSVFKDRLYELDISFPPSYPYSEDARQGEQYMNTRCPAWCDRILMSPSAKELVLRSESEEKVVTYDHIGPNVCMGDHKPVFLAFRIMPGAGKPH

INPP5B catalytic domain = INPP5B catalytic domain (Homo sapiens, UniProt P32019); assay: as above; format: biochemical
INPP5E = target: T3, INPP5E (Homo sapiens, UniProt Q9NRR6); assay: Fluorescence polarization; format: biochemical
T3 sequence (Q9NRR6 294-598 limits assumed): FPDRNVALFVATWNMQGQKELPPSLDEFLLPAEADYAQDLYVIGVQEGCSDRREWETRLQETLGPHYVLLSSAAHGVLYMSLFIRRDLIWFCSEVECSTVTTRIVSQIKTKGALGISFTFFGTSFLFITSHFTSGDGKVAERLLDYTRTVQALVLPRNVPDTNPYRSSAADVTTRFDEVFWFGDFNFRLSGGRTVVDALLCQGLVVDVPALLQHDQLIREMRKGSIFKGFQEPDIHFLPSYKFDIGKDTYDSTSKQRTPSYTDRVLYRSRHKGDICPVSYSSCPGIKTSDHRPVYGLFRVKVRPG

Synaptojanin 1 (SJ1) = Synaptojanin 1 (SJ1) (Homo sapiens, UniProt O43426); assay: Fluorescence polarization; format: biochemical
INPP5B [1] = target: T4, INPP5B (Homo sapiens, UniProt P32019); assay: biochemical
cell cultures = settings: preliminary experiments / data not shown
[2] = target: catalytic domain of human INPP5B (Homo sapiens, UniProt P32019); assay: Isothermal titration calorimetry; format: binding
[3] = system: 5-phosphatase domain of human OCRL in COS-7 cells; assay: Optogenetic in situ phosphatase assay; format: cell-based; settings: 50 μM, COS-7, n=14 cells, P<0.001 vs DMSO control
human dermal fibroblasts = assay: Cellular inositol lipid levels, 3H-myo-inositol labeling and HPLC; format: cell-based; settings: 50 μM, 1 hour treatment
INPP5B [4] = target: T4, INPP5B; assay: biochemical; remark: listed apart in the source

| IC50 (SHIP1) [nM] | IC50 (INPP5A) [nM] | IC50 (INPP5B catalytic domain) [nM] | IC50 (INPP5E) [nM] | IC50 (Synaptojanin 1 (SJ1)) [nM] | IC50 (INPP5B [1]) [nM] | Heat of binding to INPP5B catalytic domain (ITC, in words) ([2]; protein precipitation during the experiment, results inconclusive, data not shown) | IC50 (INPP5B [4]) [nM] | N (stoichiometry, ITC) ([2]; 25°C) | ΔH (ITC) ([2]; 25°C) | ΔS (ITC) ([2]; 25°C) | Ka (association constant, ITC) ([2]; 25°C, 500 µM compound into 33 µM INPP5B catalytic domain, 5% DMSO) | SMILES | Toxicity on cell cultures (cell cultures) | Loss (drop) of plasma membrane iRFP-PH-PLCδ1 fluorescence [3] [%] | All other phosphoinositide levels measured (human dermal fibroblasts) |
| --- | --- | --- | --- | --- | --- | --- | --- | --- | --- | --- | --- | --- | --- | --- | --- |
| 8970 | 1810 | 1100 | 5770 | 1300 | – | – | – | – | – | – | – | COc1cc(CN)c(Br)cc1OCc1ccccc1Cl [YU144118] | – | – | – |
| – | – | 920 | – | – | 2630 | – | – | – | – | – | – | COc1cc(-c2nnc3sc(-c4cccs4)nn23)cc(OC)c1OC [YU142717] | – | – | – |
| – | – | 530 | > 70000 | – | – | – | 17500 | 0.9108 ± 0.0547 | −7270 ± 588.6 | 0.5933 | 2.352×10^5 ± 8.744×10^4 | c1cc(-c2nnc3scnn23)ccn1 [YU142670] | – | 32±3 | remained unchanged |

More lines, now with the values behind:

| SMILES | IC50 (SHIP1) [nM] | IC50 (INPP5A) [nM] | IC50 (INPP5B catalytic domain) [nM] | IC50 (INPP5E) [nM] | IC50 (Synaptojanin 1 (SJ1)) [nM] | IC50 (INPP5B [1]) [nM] | Heat of binding to INPP5B catalytic domain (ITC, in words) ([2]; protein precipitation during the experiment, results inconclusive, data not shown) | IC50 (INPP5B [4]) [nM] | N (stoichiometry, ITC) ([2]; 25°C) | ΔH (ITC) ([2]; 25°C) | ΔS (ITC) ([2]; 25°C) | Ka (association constant, ITC) ([2]; 25°C, 500 µM compound into 33 µM INPP5B catalytic domain, 5% DMSO) | Toxicity on cell cultures (cell cultures) | Loss (drop) of plasma membrane iRFP-PH-PLCδ1 fluorescence [3] [%] | All other phosphoinositide levels measured (human dermal fibroblasts) |
| --- | --- | --- | --- | --- | --- | --- | --- | --- | --- | --- | --- | --- | --- | --- | --- |
| CC(C)Oc1c(Cl)cc(CN)cc1Cl [YU144530] | 2890 | 1440 | 810 | 2800 | > 70000 | – | – | – | – | – | – | – | – | – | – |
| CCOc1cc(CN)cc(Br)c1OCC [YU144369] | 2520 | 1070 | 570 | 2330 | 3630 | – | measurable heat of binding | – | – | – | – | – | acute toxicity | – | – |
